{
  "source": "patent US20060293264A1",
  "about": "“STAT3 decoy oligonucleotides and uses therefor” (priority 2004, published 2006)",
  "key": {"[1]": {"test_system": "STAT5", "assay": "STAT5 activation by EMSA in harvested xenografts", "assay_type": "in vivo", "settings": "xenografts after 25 treatments; specificity"}, "[2]": {"molecular_target": "T1, STAT3 (Homo sapiens, UniProt P40763)", "T1 construct": "Whole cell extracts were prepared and EMSAs performed on 4% native polyacrylamide gels; endogenous in cells; host or cells: whole cell extracts", "T1 sequence (P40763 2-770 limits assumed)": "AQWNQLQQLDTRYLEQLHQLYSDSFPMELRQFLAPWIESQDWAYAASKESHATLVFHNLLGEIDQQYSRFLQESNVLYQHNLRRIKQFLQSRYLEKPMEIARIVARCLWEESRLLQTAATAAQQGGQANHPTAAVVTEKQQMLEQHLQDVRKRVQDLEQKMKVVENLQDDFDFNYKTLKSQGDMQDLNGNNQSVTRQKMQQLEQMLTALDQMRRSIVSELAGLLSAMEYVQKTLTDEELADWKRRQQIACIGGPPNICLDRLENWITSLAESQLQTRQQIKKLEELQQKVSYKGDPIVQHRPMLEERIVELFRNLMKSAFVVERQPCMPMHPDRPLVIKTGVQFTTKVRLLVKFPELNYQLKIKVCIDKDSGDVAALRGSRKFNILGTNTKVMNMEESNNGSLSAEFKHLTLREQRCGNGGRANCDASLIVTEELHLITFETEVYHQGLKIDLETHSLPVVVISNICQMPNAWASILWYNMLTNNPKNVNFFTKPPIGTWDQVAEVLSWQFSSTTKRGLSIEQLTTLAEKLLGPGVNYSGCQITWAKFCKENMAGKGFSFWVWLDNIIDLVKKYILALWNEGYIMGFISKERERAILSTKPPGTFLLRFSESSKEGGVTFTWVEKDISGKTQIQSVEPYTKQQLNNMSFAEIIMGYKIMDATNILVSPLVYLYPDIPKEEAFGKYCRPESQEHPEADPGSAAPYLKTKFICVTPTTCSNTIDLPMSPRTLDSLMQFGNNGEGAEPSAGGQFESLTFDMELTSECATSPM", "assay": "STAT3 activation by EMSA in harvested xenografts", "assay_type": "in vivo", "settings": "xenografts harvested 4 hrs after last treatment; p=0.02", "protocol": "Electrophoretic Mobility Shift Assay (EMSA). Whole cell extracts were prepared and EMSAs performed on 4% native polyacrylamide gels as described (Xi, S., et al. J Biol Chem, 278: 31574-31583, 2003 and Wong, P., etal. Mol Cell Biol, 14. 914-922, 1994). STAT3 activation was evaluated by using binding reactions with 20 μg of extracted protein, and radiolabeled high-affinity serum inducible element (hSIE) duplex oligonucleotide (Wagner et al., EMBO J. 9(13):4477-4484 (1990)). Quantification of the STAT3 signal was performed by scanning the SIF-A band using a Molecular Dynamics Personal Densitometer SI and IMAGEQUANT software. […] For supershift experiments, extracts were preincubated with STAT3 polyclonal antibody (C-20, Santa Cruz Biotechnology). Gel shift bands were quantified by densitometry and the Molecular Analyst software (AlphaDigidoc 1000, Alpha-Innotech) with normalization of each band to the positive control lysate run on that gel as described previously for STAT3 activation determinations (Grandis, J. R. et al. Proc Natl Acad Sci USA, 97: 4227-4232., 2000).\nIn vivo tumor xenograft studies. Female athymic nude mice nu/nu (4-6 weeks old; 20±2 g; Harlan-Sprague-Dawley) were implanted with 1×10^6 1483 cells into the right and left flank with a 26-gauge needle/1 ml tuberculin syringe, resulting in two tumors per mouse. […]"}, "[3]": {"test_system": "head and neck squamous cell carcinoma", "settings": "dose-dependent; Leong et al. 2003; cited from earlier work"}, "[4]": {"test_system": "SCCHN cells (1483)", "assay": "Annexin 5-Cy3 apoptosis assay in SCCHN cells", "assay_type": "cell-based", "settings": "1483 cells; 25 μM, 6 days; p<0.0001", "protocol": "SCCHN cells (1483) were treated with mutant control decoy (25 μM), or STAT3 decoy alone (25 μM), or cisplatin alone (20 μM), or STAT3 decoy (25 μM) plus cisplatin (20 μM). Mutant control decoy or STAT3 decoy was always applied for a total of 6 days, and cisplatin was added for the last 24 hr before harvesting. The effects of the STAT3 decoy plus cisplatin on apoptosis was assessed by an Annexin 5-Cy3 apoptosis assay (BioVision Research Products, 2455-D Old Middlefield Way, Mountain View, Calif. 94043 USA) and Bcl-xL and Cyclin D1 were examined using immunoblotting as described below.\nFollowing treatment with STAT3 decoy plus cisplatin, SCCHN cells were detached by trypsinization, counted and pelleted (1000 r.p.m. for 5 min). Cell pellets were washed once with PBS (pH 7.4) and resuspended in 100 μl Annexin V binding buffer (10 mM HEPES, pH 7.4, 140 mM NaCl, 2.5 mM CaCl2). […] The membranes of apoptotic cells are stained a bright orange color when analyzed with a fluorescence microscope. The ratio (percentage) of apoptotic to total cells (apoptotic plus non-apoptotic cells) was calculated for each high power field. For each treatment, 5-10 high power fields of view were quantitated on each section."}, "[5]": {"test_system": "GAS-responsive element", "assay": "pGAS-Luc reporter gene assay in UM-22B SCCHN cells", "assay_type": "cell-based", "settings": "UM-22B pGAS-Luc, 2 μg transfected, 24 hrs, IFN-γ stimulation", "protocol": "FIG. 9 depicts the inhibition of reporter gene expression from GAS-responsive element in SCCHN cells. An SCCHN cell line, UM-22B, was used to generate a stable cell line expressing a pGAS-Luc reporter gene (pGAS-Luc plasmid carrying 4 repeats of GAS sequence: [NT] ID NO: 31), was obtained from Stratagene, Catalog number: 219091-51). The cells were transfected with 2 μg of the STAT3 decoy or the control mutant decoy. At 24 hrs after transfection, luciferase activity was measured and normalized to the total amount of protein."}},
  "data": [
    {"substance": "STAT3 decoy (sense CATTTCCCGTAAATC; antisense GATTTACGGGAAATG; phosphorothioate modified, further chemistry not given here; listed as Homo sapiens)", "values": [
      {"measurement": "STAT5 activation", "setting": "[1]", "value": "no abrogation"},
      {"measurement": "STAT3 activation levels compared with mutant control decoy", "setting": "[2]", "value": "decreased"},
      {"measurement": "head and neck squamous cell carcinoma growth in vitro", "setting": "[3]", "value": "abrogate"},
      {"measurement": "apoptosis compared with mutant control decoy", "setting": "[4]", "value": "increased"},
      {"measurement": "reporter gene expression from a GAS-responsive element (STAT1 reporter activity)", "setting": "[5]", "value": "inhibit"}
    ]}
  ]
}
